Assay results: ChEMBL document CHEMBL1140758, “Chemoenzymatic synthesis and antiviral evaluation of conformationally constrained and 3'-methyl-branched carbanucleosides using both enantiomers of the same building block” (Bioorg Med Chem, 2008)
Activity calls are given as the source filed them.

Columns and labels:
Format in all cases: functional, organism-based
[1] = tested on: Influenza A virus; assay: Antiviral activity against influenza A virus H1N1 in MDCK cells at 100 ug/mL
[2] = tested on: Punta Toro virus; assay: Antiviral activity against Punta Toro virus in Vero cells at 100 ug/mL
[3] = tested on: Vesicular stomatitis virus; assay: Antiviral activity against VSV in HeLa cells at 100 ug/mL
[4] = tested on: Mammalian orthoreovirus 1; assay: Antiviral activity against Reovirus1 in Vero cells at 100 ug/mL
[5] = tested on: Human alphaherpesvirus 1; assay: Antiviral activity against HSV1 KOS in HEL cells at 100 ug/mL
[6] = tested on: Coxsackievirus B4; assay: Antiviral activity against Coxsackie virus B4 in Vero cells at 100 ug/mL
[7] = tested on: Human alphaherpesvirus 1; assay: Antiviral activity against thymidine kinase deficient HSV1 KOS in HEL cells at 100 ug/mL
[8] = tested on: Human respirovirus 3; assay: Antiviral activity against parainfluenza 3 virus in Vero cells at 100 ug/mL
[9] = tested on: Vesicular stomatitis virus; assay: Antiviral activity against VSV in HEL cells at 100 ug/mL
[10] = tested on: Coxsackievirus B4; assay: Antiviral activity against Coxsackie virus B4 in HeLa cells at 100 ug/mL
[11] = tested on: Influenza A virus; assay: Antiviral activity against influenza A virus H3N2 in MDCK cells at 100 ug/mL
[12] = tested on: Influenza B virus; assay: Antiviral activity against influenza B virus in MDCK cells at 100 ug/mL
[13] = tested on: Vaccinia virus; assay: Antiviral activity against vaccinia virus in HEL cells at 100 ug/mL; details: Orthopoxvirus vaccinia
[14] = tested on: Sindbis virus; assay: Antiviral activity against Sindbis virus in Vero cells at 100 ug/mL
[15] = tested on: Respiratory syncytial virus; assay: Antiviral activity against RSV in HeLa cells at 100 ug/mL
[16] = tested on: Human alphaherpesvirus 2; assay: Antiviral activity against HSV2 G in HEL cells at 100 ug/mL

Measured: Activity

C[C@]12C[C@H](n3cnc4c(N)ncnc43)C[C@@]1(CO)O2
inactive: all assays above

C[C@]12C[C@H](n3cnc4c(NC5CC5)nc(N)nc43)C[C@@]1(CO)O2
inactive: all assays above

C[C@]12O[C@H]1[C@H](n1cnc3c(NC4CC4)nc(N)nc31)C[C@@H]2CO
inactive: all assays above

C[C@]12O[C@H]1[C@H](n1cnc3c(NC4CC4)ncnc31)C[C@@H]2CO
inactive: all assays above

C[C@]12O[C@H]1[C@H](n1cnc3c(N)ncnc31)C[C@@H]2CO
inactive: all assays above

C[C@]12C[C@H](n3cnc4c(NC5CC5)ncnc43)C[C@@]1(CO)O2
inactive: all assays above
